The source of these data is patent US9902735B2, “Heteroaryl substituted compounds as RORγ inhibitors” (GlaxoSmithKline Intellectual Property Developement Limited, priority 2014, dated 2018).

Type in all cases: cell-based
Test [1] deals with human CD4+ T cells. Description: Human peripheral blood CD4+ T cell cultures and cytokine analysis (Th17 polarization). Conditions: secreted IL-17A, 5 days Th17 polarization. As for the experimental part:
Human biological samples were cryopreserved human CD4+ T cells purchased from AllCells, LLC and Stemcell Technologies, Inc. The CD4+ T cells were differentiated to the Th17 subtype by culturing for 5 days in tissue culture plates coated with anti-CD3 antibody (2 μg/mL) in Iscove's modified Dulbecco's medium (IMDM) containing 10% HI-FBS, 55 μM 2-mercaptoethanol and soluble anti-CD28 (3 μg/mL) in the presence of a Th17 skewing cocktail, including IL-1β (10 ng/mL), IL-6 (30 ng/mL), TGFβ (0.5 ng/mL), IL-21 (10 ng/mL), IL-23 (10 ng/mL), anti-IFNγ (10 μg/mL) and anti-IL-4 (10 μg/mL). To examine compound effects on Th17 polarization, freshly thawed CD4+ cells in IMDM supplemented with all Th17 polarization cocktail constituents (above) were seeded at low cell density (20,000 cells/well) directly into anti-CD3 coated round bottom 96-well plates already containing serially diluted compounds. Cells were incubated undisturbed for 5 days at 37° C. Immediately following culture, supernatant was analyzed for secreted IL-17A and IL-22 protein by MSD electrochemiluminescent cytokine assays (Mesoscale Discovery) and ELISA (Quantikine assay, R&D Systems), respectively. Compound treatment(s) were performed in triplicate. Results are presented as the mean±SD or as mean percent inhibition (±SD) relative to the response to stimulus alone.

For test [2], the system named is Mouse CD4+ cells. Description: Th17 cell differentiation assay (IL-17 ELISA). Conditions: mean of multiple test results if tested more than once, read-out: pIC50 in the Th17 cell differentiation assay (converted). How it is done:
Mouse CD4+ cells were purified using the CD4+ T Cell Isolation II Kit according to manufacturer's instructions (Miltenyi Biotec). 96 well plates were pre-coated with anti-mCD3 antibody. Un-coated wells were used as controls. CD4+ Cells were resuspended in RPMI 1640 complete medium and were added to the 96-well plates. Cytokine cocktail and the compound were then added to the wells. Antibodies and cytokines (all from R&D Systems) used in the assay were selected from the following: anti-mCD3; anti-mCD28; anti-mIFNγ; anti-mIL4; mIL-6; mIL-23; mIL-1β; hTGF-β1. The culture was incubated at 37° C. for 3 days and supernatants were collected for ELISA. The IL-17 ELISAs were performed according to manufacturer's instructions (R&D Systems). The results were analyzed using Prism software with non-linear regression to determine pIC50.
The Th17 differentiation culture described above was maintained for 5 days and cells were analyzed by IL-17 and IFN-γ intracellular staining according to manufacturer's instructions (BD Biosciences).
(In general: ELISA stands for enzyme-linked immunosorbent assay.)

The target of test [3] is T1, RORγ (Homo sapiens, UniProt P51449).
T1 construct: expressed in transfected cells
T1 sequence (P51449 1-497 isoform P51449-2): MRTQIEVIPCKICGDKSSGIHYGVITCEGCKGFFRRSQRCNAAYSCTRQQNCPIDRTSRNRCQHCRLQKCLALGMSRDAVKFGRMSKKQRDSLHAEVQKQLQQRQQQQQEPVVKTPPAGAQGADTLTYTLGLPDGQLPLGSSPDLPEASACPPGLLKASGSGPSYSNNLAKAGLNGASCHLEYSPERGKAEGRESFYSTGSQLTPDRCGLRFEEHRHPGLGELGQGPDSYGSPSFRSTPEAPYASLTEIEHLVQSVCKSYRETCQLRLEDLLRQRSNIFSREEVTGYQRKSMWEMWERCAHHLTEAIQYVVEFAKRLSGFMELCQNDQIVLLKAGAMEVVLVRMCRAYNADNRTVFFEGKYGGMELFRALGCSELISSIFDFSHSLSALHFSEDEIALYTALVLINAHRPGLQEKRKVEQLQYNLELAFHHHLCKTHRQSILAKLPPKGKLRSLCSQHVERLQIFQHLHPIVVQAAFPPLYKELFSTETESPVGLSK
The test is described as follows: Jurkat cell luciferase assay (human IL17 promoter reporter). Conditions: mean of multiple test results if tested more than once; read-out: pIC50 in the Jurkat cell luciferase assay (converted). The source says: RORγ is known to bind to a CNS (conserved non-coding sequences) enhancer element in the IL17 promoter. In this assay, RORγ activity is indirectly assessed using a luciferase reporter construct which contains the human IL17 promoter having the RORγ-specific CNS enhancer element. Inhibition of RORγ activity by a compound will result in a decrease in luciferase activity of Jurkat cells transfected with the reporter construct.
For the luciferase reporter plasmid, the 3 Kb human IL17 promoter containing the RORγ-specific CNS enhancer element was PCR amplified from human genomic DNA and cloned into a pGL4-Luc2/hygro reporter plasmid sequentially as XhoI-HindIII (1.1 Kb) and KpnI-XhoI (1.9 Kb) fragments. For the 1.1 Kb fragment, PCR was used to amplify human IL17 proximal promoter region from genomic DNA of 293T cells using primers as follows: forward primer, 5′-[…]-3′ (XhoI site is underlined) and reverse primer, 5′-[…]-3′ (HindIII site is underlined). The 1.1 kb DNA bands were excised, purified, and inserted into pMD19-T Simple Vector (Takara). […]
Compounds were dissolved in DMSO at three concentrations, 10 mM, 400 uM and 16 uM, and were dispensed into 384-wells assay plate at 40 nl, 12.5 nl, 5 nl respectively. The volume was adjusted with pure DMSO to a give a final uniform volume of 40 nl Jurkat cells described above were counted and centrifuged. […]

Take `Cc1ncc(C(=O)Nc2cc(Cl)cc(CN3CCN(C(=O)CC4CC4)[C@@H](C)C3)c2C)cc1F` [Example 80, (S)—N-(5-chloro-3-((4-(2-cyclopropylacetyl)-3-methylpiperazin-1-yl)methyl)-2-methylphenyl)-5-fluoro-6-methylnicotinamide]: the IC50 in test [1] (Homo sapiens, CD4+ T, 120 h, read-out: IL17A pIC50 (converted)) is 28.8 nM; in test [2], approximately 5.01 nM; in test [3], approximately 6.31 nM. The “Inhibition Activity (ASSYM MAX)” value in test [1] worked out at 94.
